Test results from ChEMBL document CHEMBL1136486, “Novel 3,4-dihydroquinolin-2(1H)-one inhibitors of human glycogen phosphorylase a” (Bioorg Med Chem Lett, 2003).

How the values were obtained:
[1] = target: T1, Glycogen phosphorylase, muscle form (Homo sapiens, UniProt P11217); assay: Inhibitory concentration against recombinant human muscle glycogen phosphorylase a (HMGPa); type: single protein
T1 sequence (P11217 whole entry): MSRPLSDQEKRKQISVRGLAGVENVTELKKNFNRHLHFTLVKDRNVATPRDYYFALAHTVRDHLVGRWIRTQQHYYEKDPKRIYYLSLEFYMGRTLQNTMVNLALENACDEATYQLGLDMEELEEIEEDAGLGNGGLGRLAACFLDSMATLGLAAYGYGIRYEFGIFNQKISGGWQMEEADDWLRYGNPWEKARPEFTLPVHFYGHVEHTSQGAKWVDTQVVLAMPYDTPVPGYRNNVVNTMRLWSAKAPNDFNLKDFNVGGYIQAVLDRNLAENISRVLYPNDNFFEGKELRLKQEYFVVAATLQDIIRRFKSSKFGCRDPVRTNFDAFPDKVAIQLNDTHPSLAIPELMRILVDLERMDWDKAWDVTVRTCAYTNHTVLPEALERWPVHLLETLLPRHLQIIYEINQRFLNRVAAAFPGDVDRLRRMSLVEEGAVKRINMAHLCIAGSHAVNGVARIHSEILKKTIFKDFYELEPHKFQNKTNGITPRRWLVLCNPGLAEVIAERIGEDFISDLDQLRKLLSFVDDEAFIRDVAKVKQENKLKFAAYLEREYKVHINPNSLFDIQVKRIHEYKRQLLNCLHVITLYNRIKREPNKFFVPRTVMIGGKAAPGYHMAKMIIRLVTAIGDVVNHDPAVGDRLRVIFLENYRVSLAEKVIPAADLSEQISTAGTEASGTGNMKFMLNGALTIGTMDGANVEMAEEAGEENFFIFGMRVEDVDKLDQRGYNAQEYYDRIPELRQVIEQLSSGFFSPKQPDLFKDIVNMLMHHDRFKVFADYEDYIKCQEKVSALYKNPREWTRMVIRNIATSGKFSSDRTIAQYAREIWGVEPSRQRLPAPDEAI

[2] = target: T2, Glycogen phosphorylase, liver form (Homo sapiens, UniProt P06737); assay: Inhibitory concentration against recombinant human liver glycogen phosphorylase a (HLGPa)
T2 sequence (P06737 whole entry): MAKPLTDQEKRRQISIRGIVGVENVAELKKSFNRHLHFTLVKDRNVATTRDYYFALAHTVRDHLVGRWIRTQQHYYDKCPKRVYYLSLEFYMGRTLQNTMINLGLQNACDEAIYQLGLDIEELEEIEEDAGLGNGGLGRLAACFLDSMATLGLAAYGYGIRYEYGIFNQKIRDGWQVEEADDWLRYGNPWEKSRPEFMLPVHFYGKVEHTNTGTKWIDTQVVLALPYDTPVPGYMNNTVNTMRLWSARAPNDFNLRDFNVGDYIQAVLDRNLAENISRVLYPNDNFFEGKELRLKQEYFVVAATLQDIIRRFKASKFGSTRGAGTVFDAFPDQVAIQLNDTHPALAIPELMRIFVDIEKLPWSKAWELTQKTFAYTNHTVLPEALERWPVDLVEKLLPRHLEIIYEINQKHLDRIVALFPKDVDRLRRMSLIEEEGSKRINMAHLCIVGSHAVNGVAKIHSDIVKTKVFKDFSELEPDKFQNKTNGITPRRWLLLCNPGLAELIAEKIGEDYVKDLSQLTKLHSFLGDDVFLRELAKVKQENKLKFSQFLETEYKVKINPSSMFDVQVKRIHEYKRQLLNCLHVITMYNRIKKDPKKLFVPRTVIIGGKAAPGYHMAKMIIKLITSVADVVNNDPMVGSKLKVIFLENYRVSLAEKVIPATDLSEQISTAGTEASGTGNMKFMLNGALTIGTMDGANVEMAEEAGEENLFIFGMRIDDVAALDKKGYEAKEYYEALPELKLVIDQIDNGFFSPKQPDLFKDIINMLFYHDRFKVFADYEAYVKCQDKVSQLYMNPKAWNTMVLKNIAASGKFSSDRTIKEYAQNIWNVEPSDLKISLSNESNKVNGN

[3] = species on record: Rattus norvegicus; assay: Inhibition of glucose production in glucagon-stimulated glycogenolysis in primary rat hepatocytes; type: functional; conditions: Hepatocyte

| SMILES | IC50 [1] [nM] | IC50 [2] [nM] | EC50 [3] [nM] |
| --- | --- | --- | --- |
| COc1ccc2[nH]c(C(=O)NC3Cc4ccccc4N(C)C3=O)cc2c1 (configuration not stated) | 1700 | 1700 |  |
| CN1C(=O)C(NC(=O)c2cc3cc(C#N)ccc3[nH]2)Cc2ccccc21 (configuration not stated) | 110 | 180 |  |
| CCc1ccc2[nH]c(C(=O)NC3Cc4ccccc4N(C)C3=O)cc2c1 (configuration not stated) | 850 | 2500 |  |
| O=C(NC1Cc2ccccc2NC1=O)c1cc2cc(Cl)ccc2[nH]1 (racemic) | 38 | 44 |  |
| CN1C(=O)C(NC(=O)c2cc3c(Cl)cccc3[nH]2)Cc2ccccc21 (configuration not stated) | 2100 | 1600 |  |
| O=C(N[C@H]1Cc2ccccc2NC1=O)c1cc2cc(Cl)ccc2[nH]1 | 39 | 47 | 7800 |
| O=C(NC1CCc2ccccc2NC1=O)c1cc2ccccc2[nH]1 (configuration not stated) | 2440 | 1060 |  |
| COC(=O)c1ccc2[nH]c(C(=O)NC3Cc4ccccc4N(C)C3=O)cc2c1 (configuration not stated) | 2700 | 5300 |  |
| O=C(N[C@@H]1Cc2ccccc2NC1=O)c1cc2cc(Cl)ccc2[nH]1 | 14 | 25 | 1800 |
| CN1C(=O)C(NC(=O)c2cc3cc(C(F)(F)F)ccc3[nH]2)Cc2ccccc21 (configuration not stated) | 550 | 1500 |  |
| COC(=O)c1cc2[nH]c(C(=O)NC3Cc4ccccc4N(C)C3=O)cc2cc1Cl (configuration not stated) | > 20000 | > 20000 |  |
| COC(=O)c1c(Cl)ccc2[nH]c(C(=O)NC3Cc4ccccc4N(C)C3=O)cc12 (configuration not stated) | > 20000 | > 20000 |  |
| CN1C(=O)C(NC(=O)c2cc3cccc([N+](=O)[O-])c3[nH]2)Cc2ccccc21 (configuration not stated) | 120 | 300 |  |
| CN1C(=O)C(NC(=O)c2cc3ccc(-c4ccccc4)cc3[nH]2)Cc2ccccc21 (configuration not stated) | > 20000 | > 20000 |  |
| CN1C(=O)C(NC(=O)c2cc3cc(Cl)ccc3[nH]2)CCc2ccccc21 (configuration not stated) | 105 | 305 |  |
| CN1C(=O)C(NC(=O)c2cc3cccc(N)c3[nH]2)Cc2ccccc21 (configuration not stated) | 6800 | 1200 |  |
| CN1C(=O)C(NC(=O)c2cc3ccc(Cl)cc3[nH]2)Cc2ccccc21 (configuration not stated) | 69 | 99 |  |
| CN1C(=O)C(NC(=O)c2cc3cc(Br)ccc3[nH]2)Cc2ccccc21 (configuration not stated) | 73 | 30 |  |
| CN1C(=O)C(NC(=O)c2cc3cc(Cl)cc(F)c3[nH]2)Cc2ccccc21 (configuration not stated) | 55 | 83 |  |
| O=C(NC1Cc2ccccc2NC1=O)c1ccc(Cl)c(Cl)c1 (configuration not stated) | 2310 | 1370 |  |
| CN1C(=O)C(NC(=O)c2cc3ccccc3[nH]2)Cc2ccccc21 (configuration not stated) | 56 | 160 |  |
| O=C(NC1CCc2ccccc2NC1=O)c1ccc(Cl)c(Cl)c1 (racemic) | 21700 | 6400 |  |

Continued, in another order:

| IC50 [1] [nM] | IC50 [2] [nM] | SMILES | EC50 [3] [nM] |
| --- | --- | --- | --- |
|  | 140 | O=C(N[C@H]1Cc2ccccc2N(Cc2ccccn2)C1=O)c1cc2cc(Cl)ccc2[nH]1 | 11600 |
| 89 | 120 | CN1C(=O)C(NC(=O)c2cc3cc(F)ccc3[nH]2)Cc2ccccc21 (configuration not stated) |  |
| > 20000 | > 20000 | CN1C(=O)C(NC(=O)c2cc3cc(-c4ccccc4)ccc3[nH]2)Cc2ccccc21 (configuration not stated) |  |
| 98 | 120 | Cc1ccc2[nH]c(C(=O)NC3Cc4ccccc4N(C)C3=O)cc2c1 (configuration not stated) |  |
|  | 130 | O=C(NC1Cc2ccccc2N(Cc2cccnc2)C1=O)c1cc2cc(Cl)ccc2[nH]1 (racemic) | 16600 |
|  | 120 | O=C(N[C@@H]1Cc2ccccc2N(Cc2ccccn2)C1=O)c1cc2cc(Cl)ccc2[nH]1 | 14500 |
| 32 | 25 | CN1C(=O)C(NC(=O)c2cc3cc(Cl)ccc3[nH]2)Cc2ccccc21 (racemic) |  |
| 57 | 57 | CN1C(=O)[C@@H](NC(=O)c2cc3cc(Cl)ccc3[nH]2)Cc2ccccc21 | 8400 |
|  | 110 | O=C(NC1Cc2ccccc2N(Cc2ccccn2)C1=O)c1cc2cc(Cl)ccc2[nH]1 (racemic) | 20700 |
|  | 140 | Cc1n[nH]c(CN2C(=O)C(NC(=O)c3cc4cc(Cl)ccc4[nH]3)Cc3ccccc32)n1 (racemic) | 1200 |
|  | 160 | O=C(NC1Cc2ccccc2N(Cc2nnc(-c3ncc[nH]3)[nH]2)C1=O)c1cc2cc(Cl)ccc2[nH]1 (racemic) | 3700 |
| 58 | 61 | CN1C(=O)[C@H](NC(=O)c2cc3cc(Cl)ccc3[nH]2)Cc2ccccc21 | 13200 |
